# Values of other authors as cited in patent US8347551B2, “Method of applying pesticides” (priority 2004, dated 2013).
# Read-outs that look alike come from different tables or passages of the source.
# Columns and labels:
# [1] = tested on: pest; conditions: seed treatment; dose giving sufficient control of the pest; dutch registration code no. 8672
# [2] = tested on: pest; conditions: seed treatment, dose giving sufficient control of the pest
# [3] = tested on: pest; conditions: seed treatment; dose giving sufficient control of the pest; dutch registration code no. 11455
# [4] = tested on: pest; conditions: seed treatment; dose giving sufficient control of the pest; dutch registration code no. 8928
# [5] = tested on: pest; conditions: seed treatment; dose giving sufficient control of the pest; dutch registration code no. 11492
compound,measurement,setting,value
COC(=O)Nc1nc2ccccc2[nH]1 [carbendazim],Effective Dose,[1],1 g per kg onion seeds
CCOP(=S)(OCC)Oc1nc(Cl)c(Cl)cc1Cl [chlorpyriphos],Effective Dose,[2]; dutch registration code no. 10968,0.096 g per 1000 brassica seeds
O=[N+]([O-])NC1=NCCN1Cc1ccc(Cl)nc1 [imidacloprid],Effective Dose,[3],0.8 g per 1000 lettuce seeds
CC(C)NC(=O)N1CC(=O)N(c2cc(Cl)cc(Cl)c2)C1=O [iprodione],Effective Dose,[4],5 g per kg carrot seeds
COCC(=O)N(c1c(C)cccc1C)[C@H](C)C(=O)OC [metalaxyl-m],Effective Dose,[2]; dutch registration code no. 12280,0.175 g per kg brassica seeds
CN(C)C(=S)SSC(=S)N(C)C [thiram],Effective Dose,[5],1.6 g per kg radish seeds
